From the supplement of paper PMC10307832

How the values were obtained:
Experiment in all cases: relative viability (nuclei count vs DMSO), 5 days (fraction); higher = more cells survive
GSK-J4 + Tozasertib = compound: CCOC(=O)CCNc1cc(N2CCc3ccccc3CC2)nc(-c2ccccn2)n1 [GSK-J4] + Cc1cc(Nc2cc(N3CCN(C)CC3)nc(Sc3ccc(NC(=O)C4CC4)cc3)n2)n[nH]1 [Tozasertib] (partner 0.1 µM)
Procedure, shortened: (§1)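 Lung cancer cell lines in 1536-well plates were dosed by pin tool the day after seeding, either with one drug alone or with a fixed anchor-drug dose plus five library-drug doses (not always all listed) in √10 steps. After 5 days, cells were fixed and their nuclei stained in one step (final 0.05% Triton X-100, 1% formaldehyde, 1 ug/ml Hoechst), then counted on 4× images. Relative viability is the nuclei count in treated wells divided by that in vehicle wells. Values are medians of duplicate plates.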

AZ3146 + Bortezomib = compound: CN1CCC(CC1)OC2=CC(=C(C=C2)NC3=NC=C4C(=N3)N(C(=O)N4C)C5CCCC5)OC [AZ3146] + CC(C)C[C@H](NC(=O)[C@H](Cc1ccccc1)NC(=O)c1cnccn1)B(O)O [Bortezomib] (partner 0.002 µM)
Procedure, shortened: as §1

AZ3146 + Foretinib = compound: CN1CCC(CC1)OC2=CC(=C(C=C2)NC3=NC=C4C(=N3)N(C(=O)N4C)C5CCCC5)OC [AZ3146] + COc1cc2c(Oc3ccc(NC(=O)C4(C(=O)Nc5ccc(F)cc5)CC4)cc3F)ccnc2cc1OCCCN1CCOCC1 [Foretinib] (partner 0.25 µM)
Procedure, shortened: as §1

AZ3146 + Linsitinib = compound: CN1CCC(CC1)OC2=CC(=C(C=C2)NC3=NC=C4C(=N3)N(C(=O)N4C)C5CCCC5)OC [AZ3146] + C[C@]1(O)C[C@@H](c2nc(-c3ccc4ccc(-c5ccccc5)nc4c3)c3c(N)nccn32)C1 [Linsitinib] (partner 1 µM)
Procedure, shortened: as §1

Row | Cell Line | relative viability (GSK-J4 + Tozasertib; first compound 0.5 µM) | relative viability (GSK-J4 + Tozasertib; first compound 1.581 µM) | relative viability (GSK-J4 + Tozasertib; first compound 5 µM) | relative viability (GSK-J4 + Tozasertib; first compound 15.81 µM) | relative viability (GSK-J4 + Tozasertib; first compound 50 µM) | relative viability (AZ3146 + Bortezomib; first compound 0.08 µM) | relative viability (AZ3146 + Bortezomib; first compound 0.253 µM) | relative viability (AZ3146 + Bortezomib; first compound 0.8 µM) | relative viability (AZ3146 + Bortezomib; first compound 2.53 µM) | relative viability (AZ3146 + Bortezomib; first compound 8 µM) | relative viability (AZ3146 + Foretinib; first compound 0.08 µM) | relative viability (AZ3146 + Foretinib; first compound 0.253 µM) | relative viability (AZ3146 + Foretinib; first compound 0.8 µM) | relative viability (AZ3146 + Foretinib; first compound 2.53 µM) | relative viability (AZ3146 + Foretinib; first compound 8 µM) | relative viability (AZ3146 + Linsitinib; first compound 0.08 µM) | relative viability (AZ3146 + Linsitinib; first compound 0.253 µM) | relative viability (AZ3146 + Linsitinib; first compound 0.8 µM) | relative viability (AZ3146 + Linsitinib; first compound 2.53 µM) | relative viability (AZ3146 + Linsitinib; first compound 8 µM)
1 | ChaGo-K-1 | 0.221 | 0.213 | 0.236 | 0.236 | 0.21 | 0.93 | 0.837 | 0.932 | 0.961 | 0.738 | 0.93 | 0.823 | 0.872 | 0.923 | 0.816 | – | – | – | – | –
2 | EBC-1 | – | – | – | – | – | 0.549 | 0.578 | 0.541 | 0.521 | 0.279 | 0.112 | 0.0981 | 0.119 | 0.111 | 0.117 | 0.906 | 0.707 | 0.899 | 0.879 | 0.991
3 | EKVX | 0.379 | 0.213 | 0.406 | 0.346 | 0.334 | 1.03 | 1.07 | 1.11 | 1.04 | 1.26 | 0.798 | 0.753 | 0.735 | 0.869 | 0.788 | 0.945 | 1 | 0.819 | 1.09 | 0.95
4 | EMC-BAC-2 | 0.251 | 0.248 | 0.215 | 0.263 | 0.285 | 1.03 | 1.03 | 1.19 | 1.12 | 1.15 | 1.06 | 1.04 | 1.18 | 1.1 | 1.03 | 0.81 | 0.756 | 0.836 | 0.791 | 0.82
5 | EPLC-272H | 0.385 | 0.174 | 0.443 | 0.146 | 0.172 | 0.754 | 0.968 | 0.879 | 0.97 | 1.03 | – | 0.784 | 0.629 | 0.732 | 0.721 | 0.988 | 1.07 | 1.16 | 1.07 | 1.24
6 | H3255 | 0.519 | 0.622 | 0.539 | 0.531 | 0.508 | 0.757 | 0.627 | 0.825 | 0.835 | 0.792 | 0.773 | 0.764 | 0.927 | 1.04 | 0.922 | 0.9 | 0.987 | 0.961 | 0.998 | 0.902
7 | HARA | 0.124 | – | – | 0.103 | 0.117 | 1.04 | 1.15 | 1.15 | 1.14 | 0.533 | 0.823 | 0.858 | 0.895 | 0.895 | 0.197 | 0.821 | 0.95 | 1.01 | 0.993 | 0.935
8 | HCC-15 | 0.393 | – | 0.344 | 0.319 | 0.2 | 1.01 | 1.08 | 1.02 | 1.12 | 1.04 | 1.1 | 0.981 | 1.06 | 1.08 | 0.791 | 0.815 | 0.946 | 0.874 | 0.879 | 0.879
9 | HCC-44 | 0.809 | 0.803 | – | 0.646 | 0.688 | 0.875 | 0.908 | 0.881 | 0.909 | 0.884 | – | – | – | – | – | 0.598 | 0.618 | 0.685 | 0.718 | 0.675
